Measurements: doi:10.1101/2024.09.10.612317v1 (bioRxiv, 2024)

Key:
[1] = Turbidity and optical microscopy of LLPS; format: physicochemical; settings: 0.1 M phosphate buffer pH 7.4, 1M NaCl
BMDCs = assay: Cytokine, chemokine and growth factor production by BMDCs; format: cell-based, mouse; settings: coacervates 10 μM, 24 h, multiplex assays; LPS positive control
[2] = test system: BMDCs overlaid with BB7 hybridoma cells; assay: Antigen presentation assay with Ag85B and BB7 hybridoma; format: cell-based, mouse; settings: Ag85B ∼0.5 μM, BMDCs to BB7 cells 1:7

Substance | coacervates at 1M NaCl (optical micrographs) [1] | induction of cytokines, chemokines and growth factors in BMDCs (BMDCs) | antigen presentation of Ag85B (IL-2) [2]
(GHGLY)4 [GL 20] | presence of coacervates | immunologically inert | enhanced antigen presentation of Ag85B
(GHGVY)4 [GV 20] | presence of coacervates | immunologically inert | enhanced antigen presentation of Ag85B
